Experiment [1] deals with HT-29. Put plainly: Inhibition of TNF-alpha-induced adhesion of BCECF-labeled human U937 cells to human HT-29 cells at 10 uM preincubated for 1 hr followed by TNF-alpha challenge measured after 3 hrs by fluorescence microscopic method relative to control. The experiment is classed as functional.
The test system of experiment [2] is HT-29. In words: Inhibition of TNF-alpha-induced adhesion of BCECF-labeled human U937 cells to human HT-29 cells preincubated for 1 hr followed by TNF-alpha challenge measured after 3 hrs by fluorescence microscopic method. It is filed as functional, cell-based.
Experiment [3] deals with HT-29. Put plainly: Inhibition of TNF-alpha-induced ICAM-1 expression in human HT-29 cells at 10 uM preincubated for 1 hr followed by TNF-alpha challenge measured after 3 hrs by Western blot analysis. It is filed as functional, cell-based. (Immunoblotting shows a protein as a band on a membrane.)
The test system of experiment [4] is HT-29. In words: Inhibition of TNF-alpha-induced MCP-1 expression in human HT-29 cells at 10 uM preincubated for 1 hr followed by TNF-alpha challenge measured after 3 hrs by Western blot analysis. It is filed as functional, cell-based.
In experiment [5] the test system is HT-29. In words: Inhibition of TNF-alpha-induced NFkappa-B transcriptional activity in human HT-29 cells at 10 uM preincubated for 1 hr followed by TNF-alpha challenge measured after 3 hrs by dual luciferase reporter gene assay. The experiment is classed as functional, cell-based.
Experiment [6] has as its system HT-29. In words: Inhibition of TNF-alpha-induced ROS production in human HT-29 cells at 10 uM preincubated for 1 hr followed by TNF-alpha challenge measured after 30 mins by DCF-DA dye-based fluorescence microscopy. It is filed as functional, cell-based.
The subject of experiment [7] is HT-29. Put plainly: Potency index, ratio of 5-ASA IC50 to test compound IC50 for inhibition of TNF-alpha-induced adhesion of BCECF-labeled human U937 cells to human HT-29 cells. The experiment is classed as functional.
In experiment [8] the test system is HT-29. Put plainly: Inhibition of TNF-alpha-induced ICAM-1 expression in human HT-29 cells preincubated for 1 hr followed by TNF-alpha challenge measured after 3 hrs by Western blot analysis. The experiment is classed as functional, cell-based.
Experiment [9] concerns HT-29. In words: Inhibition of TNF-alpha-induced MCP-1 expression in human HT-29 cells preincubated for 1 hr followed by TNF-alpha challenge measured after 3 hrs by Western blot analysis. The experiment is classed as functional, cell-based.
Experiment [10] deals with HT-29. Put plainly: Inhibition of TNF-alpha-induced ROS production in human HT-29 cells preincubated for 1 hr followed by TNF-alpha challenge measured after 30 mins by DCF-DA dye-based fluorescence microscopy. The experiment is classed as functional, cell-based.
Experiment [11] concerns HT-29. Put plainly: Inhibition of LPS-induced TNF-alpha expression in human HT-29 cells at 10 uM preincubated for 1 hr followed by TNF-alpha challenge measured after 3 hrs by Western blot method. It is filed as functional, cell-based.
Experiment [12] has as its system HT-29. In words: Inhibition of LPS-induced TNF-alpha expression in human HT-29 cells preincubated for 1 hr followed by TNF-alpha challenge measured after 3 hrs by Western blot method. The experiment is classed as functional, cell-based.
The test system of experiment [13] is HT-29. Put plainly: Inhibition of TNF-alpha-induced AP-1 transcriptional activity in human HT-29 cells at 10 uM preincubated for 1 hr followed by TNF-alpha challenge measured after 3 hrs by dual luciferase reporter gene assay. The experiment is classed as functional, cell-based.
Experiment [14] relates to Rattus norvegicus. In words: Antiinflammatory activity in po dosed TNBS-induced Sprague-Dawley rat colitis model assessed as recovery in body weight decrease administered once a day for 5 days measured on day 6. The experiment is classed as functional, organism-based.
Experiment [15] relates to Rattus norvegicus. In words: Antiinflammatory activity in po dosed TNBS-induced Sprague-Dawley rat colitis model assessed as recovery of colon tissue edematous inflammation administered once a day for 5 days measured on day 6. It is filed as functional, organism-based.
Experiment [16] concerns Rattus norvegicus. Put plainly: Antiinflammatory activity in po dosed TNBS-induced Sprague-Dawley rat colitis model assessed as decrease in MPO levels in colon tissue administered once per day for 5 days measured on day 6. The experiment is classed as functional, organism-based.
Experiment [17] has as its system Rattus norvegicus. Put plainly: Antiinflammatory activity in TNBS-induced Sprague-Dawley rat colitis model assessed as recovery of colon tissue edematous inflammation at 300 mg/kg, po qd administered for 5 days measured on day 6. The experiment is classed as functional, organism-based.
In experiment [18] the test system is Rattus norvegicus. In words: Antiinflammatory activity in TNBS-induced Sprague-Dawley rat colitis model assessed as recovery in body weight decrease at 300 mg/kg, po qd administered for 5 days measured on day 6. It is filed as functional, organism-based.
The test system of experiment [19] is HT-29. Put plainly: Inhibition of TNF-alpha-induced adhesion of BCECF-labeled human U937 cells to human HT-29 cells at […] preincubated for 1 hr followed by TNF-alpha challenge measured after 3 hrs by fluorescence microscopic method relative to control. It is filed as functional.
The test system of experiment [20] is HT-29. In words: Inhibition of LPS-induced TNF-alpha expression in human HT-29 cells at […] preincubated for 1 hr followed by TNF-alpha challenge measured after 3 hrs by Western blot method. The experiment is classed as functional, cell-based.
The subject of experiment [21] is HT-29. In words: Inhibition of TNF-alpha-induced ROS production in human HT-29 cells at 100 uM preincubated for 1 hr followed by TNF-alpha challenge measured after 30 mins by DCF-DA dye-based fluorescence microscopy. The experiment is classed as functional, cell-based.

17 compounds from ChEMBL document CHEMBL4130349, “Discovery and structure-activity relationship studies of 2-benzylidene-2,3-dihydro-1H-inden-1-one and benzofuran-3(2H)-one derivatives as a novel class of potential therapeutics for inflammatory bowel disease” (Eur J Med Chem, 2017) can be followed below.

pIC50: −log10 of the molar value. Calls of active or inactive are those of the source. No cut-off for these calls is given here.

By inhibition is commonly meant the relative decrease from the control value, in per cent. Broadly, the pIC50 is the negative decadic logarithm of the IC50, by convention in mol/L. High values mean a small IC50, low ones a large IC50.

Take `O=C1/C(=C/c2ccc(Cl)cc2)Cc2cccc(O)c21`: the inhibition at 10 µM in the experiment with HT-29 [1] was determined as 78.4%. This compound gave a pIC50 with HT-29 [2] of 5.79. Also, the inhibition entry in the experiment on HT-29 [3], with HT-29 [4], with HT-29 [5] and with HT-29 [6] was “Active” in each case.
On to `O=C1/C(=C/c2cccc(O)c2)Oc2cc(O)ccc21`, for which the inhibition at 10 µM with HT-29 [1] was determined as 75.7%. The compound also showed a pIC50 in the experiment on HT-29 [2] of 5.77. Also, the inhibition entry with HT-29 [3], in the experiment on HT-29 [4], with HT-29 [5] and in the experiment on HT-29 [6] was “Active” each time.
With `O=C1/C(=C/c2ccc(O)cc2)Oc2cc(O)ccc21`, the inhibition at 10 µM in the experiment on HT-29 [1] came out at 80.3%. For the same compound, the negative logarithm of the IC50 (pIC50) in the experiment on HT-29 [2] is 6.30. For the same compound, the inhibition entry in the experiment with HT-29 [2], in the experiment on HT-29 [8], with HT-29 [9], in the experiment with HT-29 [12] and in the experiment with Rattus norvegicus [16] was “Dose-dependent effect” throughout. Also, the “Ratio IC50” value in the experiment on HT-29 [7] worked out at 40000. Besides, the inhibition result in the experiment with HT-29 [5], in the experiment with HT-29 [10], in the experiment with HT-29 [11] and with HT-29 [13] was “Active” each time. Besides, the Activity entry with Rattus norvegicus [14] and with Rattus norvegicus [15] was “Dose-dependent effect” in each case.
Consider `O=C1/C(=C/c2ccc(O)cc2)Cc2ccccc21`, for which, in the experiment on HT-29 [1], the inhibition at 10 µM came out at 72.6%. The compound also showed a negative logarithm of the IC50 (pIC50) with HT-29 [2] of 5.82. In addition, the inhibition result in the experiment on HT-29 [3], in the experiment with HT-29 [4], in the experiment on HT-29 [5] and in the experiment with HT-29 [6] was “Active” each time.
For the compound `O=C(O)c1cc(/N=N/c2ccc(S(=O)(=O)Nc3ccccn3)cc2)ccc1O`, the inhibition result in the experiment on Rattus norvegicus [17] and in the experiment on Rattus norvegicus [18] was “Active” throughout.
Consider `O=C1/C(=C/c2ccccc2O)Oc2ccccc21`, for which the inhibition at 10 µM with HT-29 [1] is 85.6%. Besides, the pIC50 in the experiment with HT-29 [2] was 6.02. In addition, the inhibition entry in the experiment on HT-29 [3], with HT-29 [4], in the experiment on HT-29 [5] and in the experiment with HT-29 [6] was “Active” each time.
On to `O=C1/C(=C/c2ccccc2O)Cc2ccc(O)cc21`, for which, in the experiment on HT-29 [1], the inhibition at 10 µM worked out at 71.3%. In the experiment on HT-29 [2], the pIC50 is 5.64. For the same compound, the inhibition entry in the experiment on HT-29 [3], with HT-29 [4], in the experiment on HT-29 [5] and with HT-29 [6] was “Active” in each case.
Turning to `O=C1/C(=C/c2ccc(Cl)s2)Oc2ccccc21`, in the experiment on HT-29 [1], the inhibition at 10 µM came out at 75.1%. The compound further showed a pIC50 in the experiment on HT-29 [2] of 5.43. The inhibition result with HT-29 [3], in the experiment on HT-29 [4], in the experiment with HT-29 [5] and in the experiment on HT-29 [6] was “Active” throughout.
In the case of `Nc1ccc(O)c(C(=O)O)c1` [MESALAMINE], the inhibition at 10 µM with HT-29 [1] worked out at 3.7%. Besides, in the experiment on HT-29 [19], the inhibition worked out at 52.8%. This compound also had a pIC50 with HT-29 [2] of 1.69. Besides, the inhibition result in the experiment on HT-29 [11] is “inactive”. The inhibition entry in the experiment with HT-29 [20] was “Active”.
In the case of `O=C1/C(=C/c2ccc(O)cc2)Cc2ccc(O)cc21`, the inhibition at 10 µM in the experiment with HT-29 [1] came out at 80.3%. The compound further gave a pIC50 in the experiment with HT-29 [2] of 6.08. Besides, the inhibition entry in the experiment on HT-29 [3], in the experiment on HT-29 [4], in the experiment with HT-29 [5], in the experiment on HT-29 [6], in the experiment on HT-29 [11] and in the experiment with HT-29 [13] was “Active” each time.
In the case of `O=C1/C(=C/c2ccc(Cl)cc2)Oc2cc(O)ccc21` [6-HYDROXY-4'-CHLORO AURONE], the inhibition at 10 µM in the experiment with HT-29 [1] was determined as 49%.
Turning to `O=C1/C(=C/c2ccc(OC(F)(F)F)cc2)Cc2ccccc21`, the inhibition at 10 µM in the experiment with HT-29 [1] was found to be 34.5%.
On the same count and under the same terms, as for `COc1ccc(/C=C2\Cc3cc(O)ccc3C2=O)cc1O`, the figure is -2.5%.
Regarding `COc1cc(C(C)=O)ccc1O`, the inhibition result in the experiment on HT-29 [21] is “Active”.
In the case of `O=C1/C(=C/c2ccccc2O)Oc2cc(O)ccc21`, the inhibition at 10 µM with HT-29 [1] worked out at 53.5%.
As to `O=C1/C(=C/c2ccccc2)Cc2ccccc21`, in the experiment on HT-29 [1], the inhibition at 10 µM was found to be 55.3%. Also, in the experiment on HT-29 [2], the negative-log IC50 (pIC50) was 5.24. Moreover, the inhibition entry in the experiment with HT-29 [4] and in the experiment with HT-29 [5] was “Active” each time.
For `O=C1/C(=C/c2cccc(O)c2)Oc2ccccc21`, in the experiment with HT-29 [1], the inhibition at 10 µM amounted to 75.4%. In addition, in the experiment with HT-29 [2], the pIC50 is 5.50. The inhibition entry in the experiment on HT-29 [3], in the experiment on HT-29 [4], in the experiment with HT-29 [5] and in the experiment on HT-29 [6] was “Active” each time.
